Assay results published in patent US20060134239A1, “Agents against microorganisms containing patchouli oil, patchouli alcohol and/or the derivatives thereof” (priority 2003, published 2006).

Tests used:
Format in all cases: cell-based
[1] = test system: Aspergillus niger, DSM 1988; experiment: Sporulation of Aspergillus niger on the surface of an acetate silicone jointing compound (Example 3); conditions: for Sporulation [%]: control series
Protocol: Effect on Patchouli Oil on the Sporulation of Aspergillus niger on the Surface of an Acetate Jointing Compound
Commercially available, but preservative-free, one-component silicone jointing compounds curing at room temperature (acetate system, cured 2.2×2.2×0.3 cm pieces of film) were disinfected with 70% EtOH (ethanol) and placed for 24 h in active component solutions with various concentrations. The test specimens were then re-washed twice with EtOH, rinsed with distilled water (sterile) and dried for 24 h. The test specimens were weighed before and after this treatment and the quantity of active component in the test specimens was thus determined together with the concentration of the active component solution. The test specimens were then placed on wort agar plates and thinly coated with agar in which fungal spores had been incorporated (10^5 CFU/ml Aspergillus niger, DSM 1988). The plates were incubated for 3 days at 25° C. Sporulation was visually evaluated from the test specimens and the sporulation rate in [%] was determined.

[2] = test system: Aspergillus niger (DSM 1988); experiment: Sporulation of Aspergillus niger on a filter surface after 2 applications (Example 4); conditions: for Sporulation [%]: 3 days at 25° C.
Protocol: Effect of Patchouli Oil on the Sporulation of Aspergillus niger on a Filter Surface after 2 Applications
Filter papers (2×2 cm) were disinfected and treated twice with a 1 hour interval with 50 μl of active-component solutions (in ethanol) differing in concentration. The test specimens were then dried. The test specimens were then placed on wort agar plates and the surface of the wort agar plates was contaminated with 100 μl of a germ suspension (10^3 CFU/ml) of Aspergillus niger (DSM 1988). The plates were incubated for 3 days at 25° C. Sporulation was visually evaluated and the sporulation rate in [%] was determined. […] Sporulation was inhibited by increasing concentrations of eugenol and was 95% suppressed at 90 μm.

[3] = test system: Aspergillus niger (DSM 1988); experiment: Sporulation of Aspergillus niger on wort agar plates with active component in the agar (Example 1); conditions: control series
Protocol: Effect of Patchouli Oil on the Sporulation of Aspergillus niger
(§1) Contamination of the surface of wort agar plates with 100 μl of a germ suspension (10^3 CFU/ml) of Aspergillus niger (DSM 1988). Various quantities of active component (dissolved in ethanol, for final concentrations see Table 1) were added to the agar plates beforehand. The plates were incubated for 3 days at 25° C. Sporulation was visually evaluated and the sporulation rate in [%] was determined.
Active component: patchouli oil obtained by steam distillation (mixture of patchouli oil from Kaders, Sensient, Polarome and Nitsche)

[4] = test system: Aspergillus niger (DSM 1988); experiment: Sporulation of Aspergillus niger on wort agar plates, patchouli alcohol (Example 2)
Protocol: Effect of Patchouli Alcohol on the Sporulation of Aspergillus niger
as §1, with “component (solutions” for “component (dissolved”, “Table 2)” for “Table 1)”, “for 5” for “for 3”, “determined. […] Sporulation was inhibited with increasing concentrations and was 95% suppressed at 450 μm.” for “determined.”

`C=CCc1ccc(O)c(OC)c1` [eugenol] was tested, and the “Suppression of sporulation” value ([1]; at 9 μm/g jointing compound) was “completely suppressed” and the “Suppression of sporulation” value ([2]; at 90 μm) was 95%.
With `CC(C)=CCCC(C)=CCCC(C)=CCO` [farnesol] the “Sporulation [%]” value ([3]; concentration 25 μm in wort agar) was 90%, the “Sporulation [%]” value ([3]; concentration 62.5 μm in wort agar) was 75% and the “Sporulation [%]” value ([3]; concentration 125 μm in wort agar) was 50%. For the same molecule, the “Sporulation [%]” value ([3]; concentration 250 μm in wort agar) was 10%, the “Sporulation [%]” value ([3]; concentration 500 μm in wort agar) was 0% and the “Sporulation [%]” value ([1]; 0.4 μm/g jointing compound) was 100%. The “Sporulation [%]” value ([1]; 1.1 μm/g jointing compound) was 100%, the “Sporulation [%]” value ([1]; 17 μm/g jointing compound) was 30% and the “Inhibition of sporulation compared with identical concentrations of patchouli oil” value ([1]; parallel test series on jointing compound) was “inhibited, but to a far lesser extent”. For the same molecule, the “Inhibition of sporulation compared with identical concentrations of patchouli oil” value ([2]; second, parallel test series on filter paper) was “inhibited, but to a lesser extent”, the “Sporulation [%]” value ([2]; solution concentration 0.5 μm, filter paper treated twice with 50 μl) was 100% and the “Sporulation [%]” value ([2]; solution concentration 5 μm, filter paper treated twice) was 100%. The “Sporulation [%]” value ([2]; solution concentration 25 μm, filter paper treated twice) was 100%, the “Sporulation [%]” value ([2]; solution concentration 35 μm, filter paper treated twice) was 60% and the “Sporulation [%]” value ([2]; solution concentration 50 μm, filter paper treated twice) was 80%. The “Sporulation [%]” value ([2]; solution concentration 70 μm, filter paper treated twice) was 50% and the “Sporulation [%]” value ([2]; solution concentration 90 μm, filter paper treated twice) was 40%.
With `C[C@H]1CC[C@@]2(O)C(C)(C)[C@@H]3CC[C@@]2(C)[C@H]1C3` [patchouli alcohol, Patchouli alcohol] the “Inhibition of growth of the test strain” value ([4]; all concentrations used (up to 450 μm)) was “None of the active component concentrations used inhibited the growth”, the “Suppression of sporulation” value ([4]; at 450 μm, 5 days at 25° C.) was 95% and the “Sporulation [%]” value ([4]; concentration 225 μm in wort agar, 5 days at 25° C.) was 95%. For the same molecule, the “Sporulation [%]” value ([4]; concentration 450 μm in wort agar, 5 days at 25° C.) was 5%.
